Test results: US20030158089A1, “Administrative agents via the SMVT transporter” (priority 2002, published 2003)
pIC50: −log10 of the molar value. Where two headings read alike, the source gives them in different places.

Columns and labels:
human SMVT (SLC5A6) = biological target: T1, human SMVT (SLC5A6) (Homo sapiens, UniProt Q9Y289); test: Two-electrode voltage-clamp transport currents in SMVT-expressing Xenopus oocytes; format: cell-based; conditions: for Vmax as a % of Biotin Vmax: % max response relative to biotin, transporter-expressing oocytes, test compound 0.5 mM
T1 construct: The complete open reading frame of human SMVT (SLC5A6) was amplified; expressed in transfected cells; host or cells: Xenopus oocytes injected with 10-30 ng cRNA transcribed from the pMO plasmid
T1 sequence (Q9Y289 1-635): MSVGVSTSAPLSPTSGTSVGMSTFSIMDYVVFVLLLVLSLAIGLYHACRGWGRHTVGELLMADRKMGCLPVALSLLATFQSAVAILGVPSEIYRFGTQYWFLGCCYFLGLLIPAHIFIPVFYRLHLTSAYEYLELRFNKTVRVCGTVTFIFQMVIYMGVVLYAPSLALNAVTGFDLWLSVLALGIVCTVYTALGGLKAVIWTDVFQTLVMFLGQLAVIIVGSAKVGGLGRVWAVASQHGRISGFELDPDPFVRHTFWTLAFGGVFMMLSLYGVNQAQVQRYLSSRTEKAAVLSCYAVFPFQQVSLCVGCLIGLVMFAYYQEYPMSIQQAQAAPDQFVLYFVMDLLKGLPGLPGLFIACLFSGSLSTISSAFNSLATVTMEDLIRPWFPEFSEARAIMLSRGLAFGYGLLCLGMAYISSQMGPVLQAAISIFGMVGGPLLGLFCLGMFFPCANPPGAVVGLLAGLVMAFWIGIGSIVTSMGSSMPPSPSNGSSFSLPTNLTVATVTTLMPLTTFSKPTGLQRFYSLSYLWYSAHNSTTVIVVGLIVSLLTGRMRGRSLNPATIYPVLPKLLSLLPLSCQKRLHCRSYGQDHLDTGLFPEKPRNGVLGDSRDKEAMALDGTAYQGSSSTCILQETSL
Source text: “Vmax” and “KM” of a compound for a transporter (e.g., the SMVT transporter) are defined in accordance with convention. Vmax is the number of molecules of compound transported per unit time at saturating concentration of the compound. KM is the concentration of the compound at which the compound is transported at half of Vmax. In general, a high value Of Vmax is desirable for a substrate of a transporter. A low value of KM is desirable for transport of low concentrations of a compound, and a high value of KM is desirable for transport of high concentrations of a compound. Vmax is affected both by the intrinsic turnover rate of a transporter (molecules/transporter protein) and transporter density in plasma membrane that depends on expression level. For these reasons, the intrinsic capacity of a compound to be transported by a particular transporter is usually expressed as the ratio (or percent) of the Vmax of the compound/Vmax of a control compound known to be a substrate for the transporter.
cRNA for oocyte expression was prepared by linearization of plasmid cDNA and in vitro transcription using T7 polymerase (Epicentre Ampliscribe kit). Xenopus oocytes were prepared and maintained as previously described (Collins et al., PNAS […]:5456-5460 (1997)) and injected with 10-30 ng RNA. Transport currents were measured 2-6 days later using two-electrode voltage-clamp (Axon Instruments). All experiments were performed using a modified oocyte ringers solution (90 mM NaCl, 2 mM KCl, 1.8 mM CaCl2, 1 mM MgCl2, and 10 mM NaHEPES, pH 7.4; in Na^+-free solutions […] choline chloride was substituted for NaCl). The membrane potential of oocytes was held at −60 mV and current traces acquired using PowerLab software (ADInstruments). Full 7-concentration dose-responses were performed for each compound. […] Half-maximal concentrations were calculated using non-linear regression curve fitting software (Prism) with the Hill co-efficient fixed to 1. To ensure that currents were specific for the over-expressed transporter, all compounds were tested against uninjected oocytes.

in vivo = conditions: male, Sprague-Dawley, rat, po
Procedure: Test compounds were administered as an intravenous bolus injection or by oral gavage to groups of four to six adult male Sprague-Dawley rats (weight approx 250 g) as solutions in water or water/ethanol (90:10). The doses ranged between 10 and 200 mg per kg body weight (i.e. 0.04-0.8 mmole/kg). Animals were fasted overnight before the study and for 4 hours post-dosing. Blood samples (1.0 mL) were obtained via a jugular vein cannula at intervals over 24 hours after oral dosing. Blood was processed immediately for plasma and plasma was frozen at −80° C. until analyzed.
Concentrations of test compound in plasma were determined using an API 2000 LC/MS/MS instrument equipped with an Agilent 1100 binary pump and an Agilent autosampler. The column was a Zorbax XDB C8 4.6*150 mm column at room temperature. The mobile phases were 0.1% formic acid (A) and acetonitrile with 0.1% formic acid (B). The gradient condition was: 5% B for 1 min, increasing to 98% B in 3 min and maintained for 2.5 min. […] The peaks were integrated using Analyst 1.1 quantitation software.
Oral bioavailability (F) was determined by comparison of the area under the concentration versus time curve (AUC) following oral administration of the conjugate or intravenous administration of the parent agent at equimolar doses.

human or rat SMVT = conditions: voltage-clamped Xenopus oocytes; cited from earlier work
[1] = In vitro cleavage of conjugate in rat liver S9; conditions: Rat Liver S9 (0.5 mg/mL), NADPH, 37° C, 2.0 μM
[2] = Caco-2 homogenate S9 stability; format: in vitro ADME; conditions: Caco-2 S9 (0.5 mg protein per mL), 37° C, 5 μM
Procedure: Caco-2 Homogenate S9 Stability: Caco-2 cells were grown for 21 days prior to harvesting. Culture medium was removed and cell monolayers were rinsed and scraped off into ice-cold 10 mM sodium phosphate/0.15 M potassium chloride, pH 7.4. Cells were lysed by sonication at 4° C. using a probe sonicator. Lysed cells were then transferred into 1.5 mL centrifuge vials and centrifuged at 9000 g for 20 min at 4° C. The resulting supernatant (Caco-2 cell homogenate S9 fraction) was aliquoted into 0.5 mL vials and stored at −80° C. until used.
For stability studies, conjugate (5 μM) was incubated in Caco-2 homogenate S9 fraction (0.5 mg protein per mL) for 60 min at 37° C. Concentrations of intact conjugate and released drug were determined at zero time and 60 minutes using LC/MS/MS.

Pancreatin = Pancreatin stability; format: in vitro ADME, porcine; conditions: 1 % (w/v) pancreatin, pH 7.5, 37° C, 5 μM
Procedure: Pancreatin Stability: Stability studies were conducted by incubating conjugate (5 μM) with 1 % (w/v) pancreatin (Sigma, P-1625, from porcine pancreas) in 0.025 M Tris buffer containing 0.5 M NaCl (pH 7.5) at 37° C. for 60 min. The reaction was stopped by addition of 2 volumes of methanol. After centrifugation at 14,000 rpm for 10 min, the supernatant was removed. and analyzed by LC/MS/MS.

[3] = In vitro cleavage of conjugate in human plasma; conditions: 37° C, 2.0 μM
[4] = In vitro cleavage of conjugate in rat plasma; conditions: 37° C, 2.0 μM
[5] = In vitro cleavage of conjugate in human liver S9; conditions: Human Liver S9 (0.5 mg/mL), NADPH, 37° C, 2.0 μM
hSMVT = biological target: T2, hSMVT (Homo sapiens, UniProt Q9Y289); test: Radiolabeled competition assay in SMVT-expressing CHO cells; format: cell-based
T2 sequence (Q9Y289 1-635): T1 sequence (Q9Y289 1-635)
Source text: The complete open reading frame of human SMVT (SLC5A6) was amplified from human cDNA prepared from intestinal mRNA. Gene-specific oligonucleotide primers were designed against Genbank sequences (NM-021095). Amplified PCR products were cloned into a modified version of the mammalian expression vector pcDNA3 (termed pMO) that was engineered to contain the 5′ and 3′ untranslated regions from the Xenopus beta-globin gene. All clones were completely sequenced and tested for function by transient transfection in HEK293 cells.
Stable clones of CHOK1 cells were obtained by electroporation, selection in G418, and single cell sorting using FACS ([…] cell sorting, Cytomation). Stable clones expressing SMVT were identified by enhanced uptake of radiolabeled substrates. For cell uptake studies, stable CHOK1 clones were seeded into polylysine coated 96-well microtiter plates and grown for 2-3 days. Cells were incubated with experimental solutions (combinations of radiolabeled and unlabeled compounds) for 30 minutes at room temperature, washed four times, and lysed in scintillation solution. Accumulation of radiolabeled molecules was measured in a microtiter scintillation plate reader (Perkin Elmer). Inhibition constants (IC50s) were calculated using curve-fitting software (Prism).

[6] = rat, 2 μM
[7] = rat, 2 μM, pH 7.4
[8] = radiolabeled competition assay in SMVT-expressing CHO cells, read-out: IC50

**Q.** For “N-acetyl-D-Lys(ε-biotin)-D-Arg-D-Arg-D-Arg-D-Gln-D-Arg-D-Arg-D-Lys-D-Lys-D-Arg-NH2 [biotinylated decapeptide, reference compound]”, which “specific sodium-dependent current (SMVT substrate activity)” value (human SMVT (SLC5A6); 20 μM peptide, presence and absence of 100 mM Na+) is on record?
**A.** The value was “no specific, sodium-dependent current”.

**Q.** With `O=C(O)CCCC[C@@H]1SC[C@@H]2NC(=O)N[C@@H]21` [biotin] as the compound, how does the “plasma concentration at the highest dose” value (in vivo) read?
**A.** The value was ~4000 ng/mL.

**Q.** What about the bioavailability (in vivo; 25 mg/kg) of the same compound?
**A.** The bioavailability was 100%.

**Q.** What about the bioavailability (in vivo; 200 mg/kg) of the same compound?
**A.** The bioavailability was 27%.

**Q.** What about the Km (human or rat SMVT) of the same compound?
**A.** Its Km is 5 to 20 µM.

**Q.** Which “Vmax as a % of Biotin Vmax” value (human SMVT (SLC5A6)) does the source give for `CCC(=O)OC(OC(=O)NCC1(CC(=O)O)CCCCC1)C(C)C` (stereo not drawn) [(9), 1-{[(α-Propanoyloxyisobutoxy)carbonyl]aminomethyl}-1-Cyclohexane Acetic Acid] here?
**A.** Its value is 19%.

**Q.** What about the “% of Drug Released from Conjugate after 60 min” value (“% of Drug Released” below) [1] of the same compound?
**A.** Its value is 62%.

**Q.** What about the “% of Drug Released” value [2] of the same compound?
**A.** Its value is 65%.

**Q.** What about the “% of Drug Released” value (Pancreatin) of the same compound?
**A.** Its value is 25%.

**Q.** What about the “% of Drug Released” value [3] of the same compound?
**A.** The value was 7%.

**Q.** And the “% of Drug Released” value [4]?
**A.** The value was 69%.

**Q.** And the “% of Drug Released” value [5]?
**A.** The value was 83%.

**Q.** With `CC(C)(C)C(=O)OCOC(=O)NCC1(CC(=O)O)CCCCC1` [(1), 1-{[(α-Pivaloyloxymethoxy)carbonyl]aminomethyl}-1-Cyclohexane Acetic Acid] as the compound, how does the “Vmax as a % of Biotin Vmax” value (human SMVT (SLC5A6)) read?
**A.** The value was 21%.

**Q.** And the pIC50 (hSMVT; [8])?
**A.** Its pIC50 is 3.35.

**Q.** What does the source list for `CC(OC(=O)NCC1(CC(=O)O)CCCCC1)OC(=O)C(C)C` (stereo not drawn) [(6), 1-{[(α-Isobutanoyloxyethoxy)carbonyl]aminomethyl}-1-Cyclohexane Acetic Acid]?
**A.** Vmax as a % of Biotin Vmax (human SMVT (SLC5A6)): 46%; % of Drug Released from Conjugate after 60 min [6]: 23%; pIC50 (hSMVT; [8]): 4.00; % of Drug Released from Conjugate after 60 min [7]: 52%

**Q.** With `NCC1(CC(=O)O)CCCCC1` [Gabapentin, reference compound] as the compound, how does the “Vmax as a % of Biotin Vmax” value (human SMVT (SLC5A6)) read?
**A.** The value was 0%.

**Q.** And the pIC50 (hSMVT)?
**A.** The pIC50 was < 3.30.

**Q.** What does the source list for `CC(C)(CO)[C@@H](O)C(=O)NCCC(=O)[O-].[Na+]` [pantothenate, sodium pantothenate]?
**A.** plasma concentration at the highest dose (in vivo): ~4000 ng/mL; bioavailability (in vivo; 25 mg/kg): 35%; bioavailability (in vivo; 200 mg/kg): 10%
